Assay results as given in patent US20210369680A1, “METHODS OF TREATING DISEASES AND DISORDERS RESULTING FROM BETA CORONAVIRUS INFECTION” (T3D Therapeutics, Inc., priority 2020, published 2021).

Tests used:
[1] = FDG-PET relative cerebral metabolic rate for glucose, clinical study; assay type: in vivo, human; conditions: for R CMRgl change (EOT-BL) relative to average Whole Brain: combined dose groups
Source text: FDG-PET Data from Clinical Study with Compound of Example 11
FDG-PET scans were obtained at three clinical sites.
Increases and decreases in relative regional glucose metabolism (A R CMRgl (EOT-BL)) were observed over the treatment period.

[2] = Fasted plasma metabolomics, clinical study; assay type: in vivo, human
Description: Plasma Metabolomic Data from Clinical Study with Compound of Example 11
Fasted plasma metabolomics biomarkers were examined seeking evidence of systemic and brain pharmacological effects of Compound from Example 11. Over 800 chemically defined metabolites were examined for each dose group and a ratio EOT/BL) was calculated with an associated p value. Four dose groups were tested, 3, 10 30 and 90 mg. In general, the 30 and 90 mg dose groups had the largest impact on the metabolomics profile, each with 120 metabolites with p<0.05, while the 3 and 10 mg groups had smaller effects (40 and 61 with p<0.05 respectively). The metabolites were split into about 60 families. […] BCAAs are positively correlated with insulin resistance and diabetes. […] Some of these metabolites, such as isovaleryl and isobutyryl carnitine are part of a principal component shown to be positively associated with insulin resistance. The numbers in Table 7 are ratios of the dose group averages end of treatment (EOT) to baseline (BL). A green box indicates a statistically significant (p<0.05) decrease in metabolite. The light green indicates the p value is between 0.05 and 0.1. Statistical comparisons between doses and visits were conducted using Two-Way Repeated Measure ANOVA. Reference is made to Newgard CB, 2017. Metabolomics and Metabolic Disease, Where Do We Stand? Cell Metabolism 25: 43-56, which is incorporated by reference with regard to the example.

CCc1oc(-c2ccc(OC)cc2)nc1CCOc1ccc2c(c1)CC[C@H]2CC(=O)[O-].[Na+] [Example 11, Sodium (S)-2-(5-(2-(5-ethyl-2-(4-methoxyphenyl)oxazol-4-yl)ethoxy)-2,3-dihydro-1H-inden-1-yl)acetate]
spatial extent of ROSDs with positive R CMRgl change (p<0.005) ([1]; 10 mg): 70 voxels
spatial extent of ROSDs with positive R CMRgl change (p<0.005) ([1]; 90 mg): 2136 voxels
R CMRgl change (EOT-BL) relative to average Whole Brain ([1]; Cingulum Ant L): 0.03 ± 0.04
R CMRgl change (EOT-BL) relative to average Whole Brain ([1]; Cingulum Ant R): 0.02 ± 0.05
R CMRgl change (EOT-BL) relative to average Whole Brain ([1]; Cingulum Ant intersection L): 0.04 ± 0.05
R CMRgl change (EOT-BL) relative to average Whole Brain ([1]; Cingulum Ant intersection R): 0.03 ± 0.04
R CMRgl change (EOT-BL) relative to average Whole Brain ([1]; Insula L): 0.02 ± 0.03
R CMRgl change (EOT-BL) relative to average Whole Brain ([1]; Insula R): 0.02 ± 0.04
R CMRgl change (EOT-BL) relative to average Whole Brain ([1]; Insula intersection L): 0.03 ± 0.03
R CMRgl change (EOT-BL) relative to average Whole Brain ([1]; Insula intersection R): 0.03 ± 0.04
R CMRgl change (EOT-BL) relative to average Whole Brain ([1]; Orbital front intersection L): 0.03 ± 0.04
R CMRgl change (EOT-BL) relative to average Whole Brain ([1]; Orbital front intersection R): 0.03 ± 0.03
R CMRgl change (EOT-BL) relative to average Whole Brain ([1]; Putamen L): 0.05 ± 0.07
R CMRgl change (EOT-BL) relative to average Whole Brain ([1]; Putamen R): 0.05 ± 0.06
R CMRgl change (EOT-BL) relative to average Whole Brain ([1]; Putamen intersection L): 0.06 ± 0.06
R CMRgl change (EOT-BL) relative to average Whole Brain ([1]; Putamen intersection R): 0.06 ± 0.06
2-methylbutyrylcarnitine (C5), ratio EOT/BL ([2]; 3 mg): 0.99
3-hydroxybutyrlcarnite, ratio EOT/BL ([2]; 3 mg): 1.2
Adrenoylcarnitine (C22:4)*, ratio EOT/BL ([2]; 3 mg): 1.41
Arachidonoylcarnitine (C20:4), ratio EOT/BL ([2]; 3 mg): 1.34
Arachidoylcarnitine (C20)*, ratio EOT/BL ([2]; 3 mg): 1.11
Ceramide (d18:2/24:1, d18:1/24:2), ratio EOT/BL ([2]; 3 mg): 1.08
Dihomo-linoleoylcarnitine (C20:2)*, ratio EOT/BL ([2]; 3 mg): 1.24
Docosapentaenoylcarnitine (C22:5n3)*, ratio EOT/BL ([2]; 3 mg): 1.39
Eicosenoylcarnitine (C20:1), ratio EOT/BL ([2]; 3 mg): 1.22
Linolenoylcarnitine (C18:3)*, ratio EOT/BL ([2]; 3 mg): 1.17
Linoleoylcarnitine (C18:2)*, ratio EOT/BL ([2]; 3 mg): 1.22
Margaroylcarnitine*, ratio EOT/BL ([2]; 3 mg): 1.03
Myristoycarnitine (C14), ratio EOT/BL ([2]; 3 mg): 1.32
N-acetylleucine, ratio EOT/BL ([2]; 3 mg): 0.98
N-palmitoyl-sphingosince (d18:1/16:0), ratio EOT/BL ([2]; 3 mg): 1.06
N-stearoyl-sphinogosince (d18:1/18:0), ratio EOT/BL ([2]; 3 mg): 1.05
Oleoylcarnitine (C18:1), ratio EOT/BL ([2]; 3 mg): 1.34
Palmitoleoylcarnitine (C16:1)*, ratio EOT/BL ([2]; 3 mg): 1.44
Palmitoylcaritine (C16), ratio EOT/BL ([2]; 3 mg): 1.25
Stearoylcarnitine (C18), ratio EOT/BL ([2]; 3 mg): 1.11
acetylcarnitine (C2), ratio EOT/BL ([2]; 3 mg): 1.14
ceramide (d16:1/24:1, d18:1/22:1), ratio EOT/BL ([2]; 3 mg): 1.13
ceramide (d18:1/14:0, d16:1/16:0), ratio EOT/BL ([2]; 3 mg): 1.1
ceramide (d18:1/17:0, d17:1/18:0), ratio EOT/BL ([2]; 3 mg): 1.03
ceramide (d18:1/20:0, d16:1/22:0 d20:1/18:0), ratio EOT/BL ([2]; 3 mg): 1.12
isobutyrylcarnitine (C4), ratio EOT/BL ([2]; 3 mg): 0.95
isoleucine, ratio EOT/BL ([2]; 3 mg): 0.93
isovalerylcarnitine (C5), ratio EOT/BL ([2]; 3 mg): 1.11
laurylcarnitine (C12), ratio EOT/BL ([2]; 3 mg): 1.4
leucine, ratio EOT/BL ([2]; 3 mg): 0.95
number of metabolites with p<0.05 ([2]; 3 mg): 40
octanoylcarnitine (C8), ratio EOT/BL ([2]; 3 mg): 1.33
valine, ratio EOT/BL ([2]; 3 mg): 0.93
2-methylbutyrylcarnitine (C5), ratio EOT/BL ([2]; 10 mg): 1.02
3-hydroxybutyrlcarnite, ratio EOT/BL ([2]; 10 mg): 1.19
Adrenoylcarnitine (C22:4)*, ratio EOT/BL ([2]; 10 mg): 1.23
Arachidonoylcarnitine (C20:4), ratio EOT/BL ([2]; 10 mg): 1.23
Arachidoylcarnitine (C20)*, ratio EOT/BL ([2]; 10 mg): 1.09
Ceramide (d18:2/24:1, d18:1/24:2), ratio EOT/BL ([2]; 10 mg): 0.96
Dihomo-linoleoylcarnitine (C20:2)*, ratio EOT/BL ([2]; 10 mg): 1.24
Docosapentaenoylcarnitine (C22:5n3)*, ratio EOT/BL ([2]; 10 mg): 1.18
Eicosenoylcarnitine (C20:1), ratio EOT/BL ([2]; 10 mg): 1.03
Linolenoylcarnitine (C18:3)*, ratio EOT/BL ([2]; 10 mg): 1.19
Linoleoylcarnitine (C18:2)*, ratio EOT/BL ([2]; 10 mg): 1.21
Margaroylcarnitine*, ratio EOT/BL ([2]; 10 mg): 1.15
Myristoycarnitine (C14), ratio EOT/BL ([2]; 10 mg): 1.13
N-acetylleucine, ratio EOT/BL ([2]; 10 mg): 1
N-palmitoyl-sphingosince (d18:1/16:0), ratio EOT/BL ([2]; 10 mg): 1.02
N-stearoyl-sphinogosince (d18:1/18:0), ratio EOT/BL ([2]; 10 mg): 0.98
Oleoylcarnitine (C18:1), ratio EOT/BL ([2]; 10 mg): 1.1
Palmitoleoylcarnitine (C16:1)*, ratio EOT/BL ([2]; 10 mg): 1.11
Palmitoylcaritine (C16), ratio EOT/BL ([2]; 10 mg): 1.12
Stearoylcarnitine (C18), ratio EOT/BL ([2]; 10 mg): 1.19
acetylcarnitine (C2), ratio EOT/BL ([2]; 10 mg): 1.03
ceramide (d16:1/24:1, d18:1/22:1), ratio EOT/BL ([2]; 10 mg): .095
ceramide (d18:1/14:0, d16:1/16:0), ratio EOT/BL ([2]; 10 mg): 1.05
ceramide (d18:1/17:0, d17:1/18:0), ratio EOT/BL ([2]; 10 mg): 1.12
ceramide (d18:1/20:0, d16:1/22:0 d20:1/18:0), ratio EOT/BL ([2]; 10 mg): 1.05
